Measured values from BindingDB's records for doi:10.1021/acschembio.6b00827 (Universitätsklinikum Frankfurt, 2017).

How the values were obtained:
[1] = target: T1, Protein kinase C zeta type (Homo sapiens, UniProt Q05513); test: PKC AlphaScreen Assay; conditions: pH 7.4
T1 sequence (Q05513 whole entry): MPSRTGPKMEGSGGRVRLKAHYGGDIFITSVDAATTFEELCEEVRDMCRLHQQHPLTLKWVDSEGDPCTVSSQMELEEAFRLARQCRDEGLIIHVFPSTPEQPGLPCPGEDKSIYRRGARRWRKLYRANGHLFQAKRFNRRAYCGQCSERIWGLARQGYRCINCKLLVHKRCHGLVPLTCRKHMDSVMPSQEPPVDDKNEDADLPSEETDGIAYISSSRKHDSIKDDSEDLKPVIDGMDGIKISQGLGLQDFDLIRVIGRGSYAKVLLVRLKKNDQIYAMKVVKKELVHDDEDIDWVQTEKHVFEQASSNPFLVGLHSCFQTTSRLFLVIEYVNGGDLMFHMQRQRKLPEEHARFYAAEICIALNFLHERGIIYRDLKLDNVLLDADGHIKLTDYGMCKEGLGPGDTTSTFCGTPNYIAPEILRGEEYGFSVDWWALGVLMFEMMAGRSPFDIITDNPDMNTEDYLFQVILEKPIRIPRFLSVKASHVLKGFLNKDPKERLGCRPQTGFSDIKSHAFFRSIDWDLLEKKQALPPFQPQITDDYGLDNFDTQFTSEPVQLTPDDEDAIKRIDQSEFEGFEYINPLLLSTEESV
Method: (§1) Interaction assays were performed using the Alpha-Screen (amplified luminescent proximity homogeneous assay) technology, as described previously [Lopez-Garcia et al., Chem. Biol., 18:1463-1473; Zhang et al., Chem. Biol., 21:754-765]. The bead-based assay allows the detection of biomolecular interactions and the effect of small compounds. Briefly, the Alpha-Screen assay was performed in a finalvolume of 25 μL in white 384-well microtiter plates (Greiner Bio-One) with His-PKCι-CD (40 nM) and biotin-pseudosubstrate (80 nM) or His-PKCι-CD (15 nM) and biotin-ROCKtide (100 nM) in a buffer containing 50 mM Tris-HCl (pH 7.4), 100 mM NaCl, 0.01% (v/v) Tween 20, 0.1% (w/v) BSA, 2 mM dithiothreitol (for the PKCι-Rocktide interaction) or 5 mM dithiothreitol (for the PKCι-pseudosubstrate interaction), and the corresponding concentration of the compound. Five microliters of beads at a concentration of 20 μg/mL was added to the mixture (nickel chelate-coated acceptor beads and streptavidin-coated donor beads), and after incubation for 90 min, Alpha-Screen counts were obtained in an EnVision Multiplate reader.

[2] = target: T2, Protein kinase C iota type (Homo sapiens, UniProt P41743); test: PKC AlphaScreen Assay; conditions: pH 7.4
T2 sequence (P41743 whole entry): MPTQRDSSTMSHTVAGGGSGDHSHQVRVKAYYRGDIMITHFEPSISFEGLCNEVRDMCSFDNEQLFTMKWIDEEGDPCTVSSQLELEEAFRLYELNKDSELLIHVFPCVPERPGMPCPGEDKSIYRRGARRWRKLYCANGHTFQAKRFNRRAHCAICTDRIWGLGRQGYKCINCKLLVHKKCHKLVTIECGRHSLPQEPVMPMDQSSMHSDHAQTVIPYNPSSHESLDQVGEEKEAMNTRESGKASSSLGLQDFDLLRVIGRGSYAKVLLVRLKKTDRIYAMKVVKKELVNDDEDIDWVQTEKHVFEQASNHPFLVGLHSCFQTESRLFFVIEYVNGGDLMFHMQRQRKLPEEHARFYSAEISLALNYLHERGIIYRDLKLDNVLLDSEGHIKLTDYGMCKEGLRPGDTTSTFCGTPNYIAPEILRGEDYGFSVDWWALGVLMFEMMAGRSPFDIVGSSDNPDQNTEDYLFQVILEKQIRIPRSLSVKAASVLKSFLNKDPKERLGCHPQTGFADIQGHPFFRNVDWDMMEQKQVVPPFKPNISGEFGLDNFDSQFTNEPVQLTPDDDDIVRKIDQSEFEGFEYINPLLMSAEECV
Method: as §1

Compound | IC50 [1] [µM] | IC50 [2] [µM]
CCOC(=O)C1=C(O)C(=O)N(c2nc3ccc(C)cc3s2)C1c1ccc(-c2ccc(Cl)cc2)o1 (configuration not stated) [PS432] | 18.5 | 16.9
CCOC(=O)C1=C(O)C(=O)N(c2nc3ccc(Cl)cc3[nH]2)C1c1ccc(Cl)cc1 (configuration not stated) [PS212] | 20.5 | 43.2
CCOC(=O)C1=C(O)C(=O)N(c2nc3ccc(Cl)cc3s2)C1c1cccs1 (configuration not stated) [PS267] | 17.8 | 36.4
CCOC(=O)C1=C(O)C(=O)N(c2nc3ccc(Cl)cc3[nH]2)C1c1ccccc1 (configuration not stated) [PS312] | 44.1 | 
